# Experimental data taken from paper PMC10667598 (Scientific Reports, 2023).
# Target: T1, VcCBP (Vibrio cholerae, UniProt Q9KUA3)
# T1 construct: gene VC_0620
# T1 sequence (Q9KUA3 28-556 limits assumed): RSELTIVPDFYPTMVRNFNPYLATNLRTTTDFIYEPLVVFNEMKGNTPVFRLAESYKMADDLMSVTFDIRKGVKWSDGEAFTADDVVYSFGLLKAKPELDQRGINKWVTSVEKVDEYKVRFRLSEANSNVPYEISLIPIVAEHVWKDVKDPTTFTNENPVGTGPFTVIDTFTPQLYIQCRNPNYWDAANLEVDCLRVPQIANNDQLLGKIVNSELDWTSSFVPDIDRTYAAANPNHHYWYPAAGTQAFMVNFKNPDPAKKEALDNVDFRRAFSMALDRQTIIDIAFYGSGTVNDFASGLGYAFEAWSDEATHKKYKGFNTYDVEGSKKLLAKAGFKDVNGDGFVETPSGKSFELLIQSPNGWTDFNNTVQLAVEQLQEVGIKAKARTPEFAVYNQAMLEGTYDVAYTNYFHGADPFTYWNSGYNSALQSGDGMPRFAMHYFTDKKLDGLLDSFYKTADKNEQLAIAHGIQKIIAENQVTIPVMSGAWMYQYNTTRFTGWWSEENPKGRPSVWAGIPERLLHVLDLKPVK
compound,measurement,value
CC(=O)N[C@H]1[C@H](O[C@H]2[C@H](O)[C@@H](NC(C)=O)C(O)O[C@@H]2CO)O[C@H](CO)[C@@H](O)[C@@H]1O (stereo partly shown) [(GlcNAc)2],Kd,245 nM
